How the values were obtained:
Assay in all cases: relative viability (nuclei count vs DMSO), 5 days (fraction); higher = more cells survive
[1] = compound: Cc1ccc(NC(=O)c2ccc(CN3CCN(C)CC3)cc2)cc1Nc1nc(-c2cccnc2)cs1 [Masitinib] + CC(=O)c1c(C)c2cnc(Nc3ccc(N4CCNCC4)cn3)nc2n(C2CCCC2)c1=O [Palbociclib] (partner 0.5 µM)
Method in brief: (§1)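 Lung cancer cell lines were pin-tool dosed in 1536-well plates on the day after seeding, with either a lone drug or a fixed anchor-drug dose plus five library-drug doses (not always all listed) in √10 steps. Nuclei were counted on 4× images after 5 days. Relative viability is the ratio of treated-well to vehicle-well nuclei counts, with each value a median of duplicate plates.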

[2] = compound: Cc1ccc(NC(=O)c2ccc(CN3CCN(C)CC3)cc2)cc1Nc1nc(-c2cccnc2)cs1 [Masitinib] + N=C(N)NC(=N)NCCc1ccccc1 [Phenformin] (partner 250 µM)
Method in brief: as §1

[3] = compound: Cc1ccc(NC(=O)c2ccc(CN3CCN(C)CC3)cc2)cc1Nc1nc(-c2cccnc2)cs1 [Masitinib] + CCNC(=O)c1noc(-c2cc(C(C)C)c(O)cc2O)c1-c1ccc(CN2CCOCC2)cc1 [Luminespib] (partner 0.01 µM)
Method in brief: as §1

[4] = compound: CC1=CC(=CC=C1)NC2=NC(=CS2)C3=CC=NC=C3 + CS(=O)(=O)CCNCc1ccc(-c2ccc3ncnc(Nc4ccc(OCc5cccc(F)c5)c(Cl)c4)c3c2)o1 [Lapatinib] (partner 2 µM)
Method in brief: as §1

Row | Cell Line | relative viability ([1]; first compound 0.01 µM) | relative viability ([1]; first compound 0.03162 µM) | relative viability ([1]; first compound 0.1 µM) | relative viability ([1]; first compound 0.3162 µM) | relative viability ([1]; first compound 1 µM) | relative viability ([2]; first compound 0.01 µM) | relative viability ([2]; first compound 0.03162 µM) | relative viability ([2]; first compound 0.1 µM) | relative viability ([2]; first compound 0.3162 µM) | relative viability ([2]; first compound 1 µM) | relative viability ([3]; first compound 0.01 µM) | relative viability ([3]; first compound 0.03162 µM) | relative viability ([3]; first compound 0.1 µM) | relative viability ([3]; first compound 0.3162 µM) | relative viability ([3]; first compound 1 µM) | relative viability ([4]; first compound 0.253 µM) | relative viability ([4]; first compound 0.8 µM) | relative viability ([4]; first compound 2.53 µM) | relative viability ([4]; first compound 8 µM) | relative viability ([4]; first compound 0.08 µM)
1 | NCI-H2342 | 0.532 | 0.524 | 0.566 | 0.507 | 0.529 | 0.71 | 0.567 | 0.615 | 0.614 | 0.573 | 0.775 | 0.79 | 0.707 | 0.727 | 0.791 |  |  |  |  | 
2 | NCI-H1793 | 0.282 | 0.279 | 0.348 | 0.303 | 0.259 | 0.329 | 0.357 | 0.405 | 0.349 | 0.262 | 0.165 | 0.166 | 0.182 | 0.162 | 0.567 | 0.557 | 0.642 | 0.565 | 0.657 | 
3 | LU99A | 0.431 | 0.417 | 0.419 | 0.428 | 0.418 | 0.868 | 0.807 | 0.859 | 0.856 | 0.703 | 0.3 | 0.219 | 0.271 | 0.353 | 0.191 | 1.02 | 1.01 | 0.903 | 0.868 | 
4 | HCC-366 |  | 0.39 | 0.388 | 0.407 | 0.375 |  | 0.59 |  | 0.572 | 0.575 |  |  |  |  |  | 1.07 | 1.01 | 1.05 | 0.951 | 0.848
5 | 201T | 0.326 | 0.386 | 0.364 | 0.369 | 0.375 | 0.362 | 0.409 | 0.373 | 0.471 | 0.44 | 0.821 | 1.13 | 0.944 | 1.07 | 0.993 | 0.956 | 0.97 | 0.767 | 0.752 | 0.982
6 | HCC-827 | 0.395 | 0.466 | 0.389 | 0.613 | 0.441 | 0.395 | 0.433 | 0.382 | 0.411 | 0.318 | 0.597 | 0.906 | 0.816 | 0.558 | 0.583 | 0.187 | 0.191 | 0.187 | 0.179 | 0.204
7 | NCI-H650 | 0.33 | 0.332 | 0.331 | 0.318 | 0.318 | 0.508 | 0.428 | 0.514 | 0.303 | 0.425 | 0.7 | 0.908 | 0.798 | 0.853 | 0.766 | 0.815 | 1.32 |  | 0.975 | 0.708
8 | NCI-H2085 | 0.432 | 0.493 | 0.486 | 0.491 | 0.459 | 0.631 | 0.717 | 0.771 | 0.778 | 0.657 | 0.368 | 0.428 | 0.423 | 0.403 | 0.443 | 0.639 | 0.707 | 0.67 | 0.674 | 0.658
9 | NCI-H596 |  |  |  |  |  | 0.836 | 0.769 | 0.824 | 0.831 | 0.691 | 0.936 | 1.03 | 1.11 | 0.53 | 1.02 | 0.974 | 0.819 | 0.94 | 1.01 | 0.854
10 | SK-LU-1 | 0.431 | 0.362 | 0.373 | 0.405 | 0.416 | 0.488 | 0.466 | 0.55 | 0.687 | 0.497 | 0.208 | 0.195 | 0.2 | 0.221 | 0.193 | 1.05 |  | 0.835 | 0.937 | 0.994
11 | A-427 | 0.453 | 0.557 | 0.548 | 0.525 | 0.488 |  | 0.292 |  | 0.309 | 0.235 |  | 1.1 | 1.13 | 0.814 | 1.18 | 1.09 | 1.03 |  | 0.892 | 0.972
12 | NCI-H460 | 0.0985 | 0.105 | 0.14 | 0.071 | 0.126 | 0.482 | 0.586 | 0.508 | 0.457 | 0.503 | 0.0454 | 0.0362 | 0.0338 | 0.0453 | 0.0276 | 0.901 | 0.887 | 1.11 | 0.692 | 0.875
13 | NCI-H1734 | 0.362 | 0.327 | 0.393 | 0.394 | 0.335 | 0.423 | 0.423 | 0.493 | 0.379 | 0.339 | 0.194 | 0.195 | 0.188 | 0.187 | 0.172 | 1.02 | 1.04 | 0.932 | 0.928 | 0.896
14 | NCI-H1915 |  | 0.518 |  | 0.536 | 0.642 |  | 0.367 |  | 0.401 | 0.349 |  | 0.815 |  | 0.938 | 0.896 | 0.892 | 1.01 | 0.876 | 0.823 | 0.91
15 | Calu-6 |  |  |  |  |  |  |  |  |  |  |  |  |  |  |  | 0.969 | 0.86 | 0.873 | 0.823 | 0.945
16 | SW 1573 | 0.357 | 0.372 | 0.446 | 0.41 | 0.374 | 0.351 | 0.344 | 0.341 | 0.354 | 0.383 | 0.172 | 0.231 | 0.214 | 0.261 | 0.302 | 0.977 | 1.15 | 1.38 | 1.08 | 1.13
17 | RERF-LC-KJ | 1.05 | 1.02 | 1.09 | 1.21 | 0.938 | 0.387 | 0.451 | 0.438 | 0.447 | 0.35 | 1.41 | 1.15 | 1.42 | 1.23 | 1.27 | 0.766 | 0.693 | 0.741 | 0.728 | 0.73
18 | EMC-BAC-2 | 0.434 | 0.473 | 0.509 | 0.524 | 0.51 | 0.485 | 0.494 | 0.524 | 0.53 | 0.457 | 1.01 | 1.06 | 1.15 | 1.13 | 1.16 | 0.85 | 0.839 | 0.829 | 0.848 | 0.78
